These results are taken from patent publication US9388180B2, “Inhibitor compounds of phosphodiesterase type 10A” (priority 2012, dated 2016).

Data set [1] can be described thus: Microsomal half-life / microsomal clearance, human liver microsomes. As to conditions: 0.5 μM test substance, 0.25 mg protein/ml, pH 7.4, 37° C. Format: in vitro ADME. The method, then:
(§1) The metabolic stability of the compounds of the invention was determined in the following assay. The test substances were incubated in a concentration of 0.5 μM as follows: 0.5 μM test substance are preincubated together with liver microsomes from different species (from rat, human or other species) (0.25 mg of microsomal protein/ml) in 0.05 M potassium phosphate buffer of pH 7.4 in microtiter plates at 37° C. for 5 min. The reaction is started by adding NADPH (1 mg/mL). After 0, 5, 10, 15, 20 and 30 min, 50 μl aliquots are removed, and the reaction is immediately stopped and cooled with the same volume of acetonitrile. The samples are frozen until analyzed. The remaining concentration of undegraded test substance is determined by MSMS. The half-life (T½) is determined from the gradient of the signal of test substance/unit time plot, it being possible to calculate the half-life of the test substance, assuming first order kinetics, from the decrease in the concentration of the compound with time. The microsomal clearance (mCl) is calculated from mCl=ln 2/T½/(content of microsomal protein in mg/ml)×1000 [ml/min/mg] (modified from references: Di, The Society for Bimolecular Screening, 2003, 453-462; Obach, D M D, 1999 vol 27. N 11, 1350-1359).
A general note: Liver microsomes are a subcellular fraction often used to study metabolism.

Data set [2] in a line: Microsomal half-life / microsomal clearance, rat liver microsomes. The format is in vitro ADME. To be noted: 0.5 μM test substance, 0.25 mg protein/ml, pH 7.4, 37° C. How it is done:
as §1

In data set [3] the test system is rats. As to conditions: cited from earlier work.
The subject of data set [4] is rats. To be noted: cited from earlier work. The source holds these as a separate data set.
In data set [5] the test system is rats. As to conditions: cited from earlier work. The source holds these as a separate data set.

Take `Cc1ncccc1-c1nc(C)c2c(C)nc3scnc3n12` [Example 9, 5,6-Dimethyl-8-(2-methyl-pyridin-3-yl)-3-thia-1,4,7,8a-tetraaza-as-indacene]: the “Human mCl” value in data set [1] is given as “++ (++: <100 μl min^−1 mg^−1)”. The “Rat mCl” value in data set [2] is reported as “++ (++: <100 μl min^−1 mg^−1)”.

Turning to `Cc1ccc(-c2nc(C)c3c(C)nc4scnc4n23)cn1` [Example 11, 5,6-Dimethyl-8-(6-methyl-pyridin-3-yl)-3-thia-1,4,7,8a-tetraaza-as-indacene], in data set [1], the “Human mCl” value is “+ (+: 100-220 μl min^−1 mg^−1)”. In data set [2], the “Rat mCl” value is “+ (+: 100-220 μl min^−1 mg^−1)”.

As for `COc1ccc(Cc2nccc3cc(OC)c(OC)cc23)cc1OC` [Papaverine, papaverine], the “effect on the cataleptic effect of haloperidol” value in the data set with rats [3] (with D2 receptor antagonist haloperidol) is on record as “potentiated the cataleptic effect”. For the same compound, the “catalepsy on its own” value with rats [3] (without haloperidol) is “did not cause catalepsy”. Further, the “reduction of amphetamine-induced hyperactivity” value in the data set with rats [4] is “insignificant”. For the same compound, the “hyperactivity induced by PCP” value with rats [5] was “reduced hyperactivity”.

For `Cc1nc(-c2cccc(C(N)=O)c2)n2c1c(C)nc1scnc12` [Example 8, 3-(5,6-Dimethyl-3-thia-1,4,7,8a-tetraaza-as-indacen-8-yl)-benzamide], the “Human mCl” value in data set [1] is “++ (++: <100 μl min^−1 mg^−1)”. The “Rat mCl” value in data set [2] is given as “++ (++: <100 μl min^−1 mg^−1)”.

With `CCCc1nc(C)c2c(C)nc3sc(OC)nc3n12` [Example 5, 2-Methoxy-5,6-dimethyl-8-propyl-3-thia-1,4,7,8a-tetraaza-as-indacene], the “Human mCl” value in data set [1] is reported as “∘ (∘: >220 μl min^−1 mg^−1)”. Further, in data set [2], the “Rat mCl” value is reported as “∘ (∘: >220 μl min^−1 mg^−1)”.

On to `CCCc1nc(C)c2c(C)nc3scnc3n12` [Example 1, 5,6-Dimethyl-8-propyl-3-thia-1,4,7,8a-tetraaza-as-indacene], for which the “Human mCl” value in data set [1] is listed as “++ (++: <100 μl min^−1 mg^−1)”. Moreover, in data set [2], the “Rat mCl” value is recorded as “+ (+: 100-220 μl min^−1 mg^−1)”.

For the compound `CCCc1nc(C)c2c(C)nc3sc(C)nc3n12` [Example 3, 2,5,6-Trimethyl-8-propyl-3-thia-1,4,7,8a-tetraaza-as-indacene], the “Human mCl” value in data set [1] is “+ (+: 100-220 μl min^−1 mg^−1)”. In data set [2], the “Rat mCl” value is “∘ (∘: >220 μl min^−1 mg^−1)”.
